Data reported in US10590422B2, “Anticancer therapeutic intervention” (PHYZAT BIOPHARMACEUTICALS, LDA., priority 2017, dated 2020).

What was measured:
[1] = test system: human colon cancer HTC-116 cells; assay: Cell proliferation assay (calcein-AM) in human colon cancer HTC-116 cells; format: cell-based; settings: for Decrease in cell proliferation greater the higher the concentration of Injectin in the siRNA:Injectin complexes: Injectin 0.037% to 0.15%; for cell proliferation / proliferation: treatment 6 h; for proliferation: at 72 h, 0.17% Lipofectamine 2000 or 0.1% Injectin, FIGS. 19B and 20B
Experimental: SK-HEP-1, T24, HT-1080 and HCT-116 cell lines were maintained in a humidified atmosphere of 5% CO2 at 37° C. SK-HEP-1 cells were grown in RPMI-1640 (Sigma, St. Louis, Mo.) supplemented with 20% fetal bovine serum (FBS) (Gibco, UK), 100 U/mL penicillin G, 0.25 μg/mL amphotericin B, 100 μg/mL streptomycin (Gibco, UK), 25 mM sodium bicarbonate (Merck, Germany) and 25 mM N-2-hydroxyethylpiperazine-N′-2-ethanosulfonic acid (HEPES) (Sigma, St. Louis, Mo.). T24 and HT-1080 cells were grown, respectively, in Dulbecco's Modified Eagle's Medium (DMEM)—high glucose (Sigma, St. Louis, Mo.) and DMEM—low glucose (Sigma, St. Louis, Mo.), supplemented with 10% FBS (Gibco, UK), 100 U/mL penicillin G, 0.25 μg/mL amphotericin B, 100 μg/mL streptomycin (Gibco, UK), 25 mM sodium bicarbonate (Merck, Germany) and 25 mM HEPES (Sigma, St. Louis, Mo.). HCT-116 cells were grown in McCoy's 5A (Sigma, St. Louis, Mo.) supplemented with 10% FBS (Gibco, UK), 100 U/mL penicillin G, 0.25 μg/mL amphotericin B, 100 μg/mL streptomycin (Gibco, UK), 25 mM sodium bicarbonate (Merck, Germany) and 25 mM HEPES (Sigma, St. Louis, Mo.). For all cell lines the medium was changed every 2 days, and cells reached confluence 3-4 days after initial seeding. For subculturing, cells were dissociated with 0.25% trypsin-ethylenediaminetetraacetic acid (EDTA) (Sigma, St. Louis, Mo.), split 1:15 or 1:20 and subcultured in a 21-cm^2 growth area (Sarstedt, Germany).
Cell proliferation was measured using calcein-AM (Thermo Fisher Scientific, USA). The membrane permeant calcein-AM, a nonfluorescent dye, is taken up and converted by intracellular esterases to membrane impermeant calcein, which emits green fluorescence. Cells were plated in 96-well plates with black walls clear bottom (BD Biosciences, USA) and incubated 24 h under normal growth conditions. Cells were incubated with test items at 37° C., 5% C02. After the incubation period, serum and antibiotic was restored and cells were further incubated at normal conditions during 72 h. After treatment with test substances or vehicle, cells were washed twice with Hanks' medium and loaded with 2 μM calcein-AM in Hanks' medium, at 37° C. for 30 min. Fluorescence was measured at 485 nm excitation and 530 nm emission wavelengths in a microplate spectrofluorometer (Gemini EM, Molecular Devices). Nine consecutive fluorescence measurements are performed per well, to allow fluorescence readings in the whole area of the well, which was then considered for the calculation of mean fluorescence per well. To determine minimum staining for calcein (calceinmin), eight wells were treated with ethanol 30 min before calcein-AM addition. The percent cell number is calculated as [(calceinsample)/(calceincontrol)]×100.

[2] = test system: human colon cancer HTC-116 cells xenograft tumour; assay: Xenograft tumour model, relative tumour volume, intratumoral injections; format: in vivo, NMRI nu/nu mice; settings: immune deficient mice, subcutaneous HTC-116; 10 μg intratumoral (50 μL) every other day; versus vehicle (Injectin); FIG. 23
Experimental: Human colon cancer HTC-116 cells grown in tissue culture and 10^7 cells per mouse were injected into the hind flank of female NMRI nu/nu mice. Once tumours have developed and tumour volumes reached randomisation criteria, therapy will commence by every other day […], intra-tumoral injections. A vehicle treated group was included in the study as control. Female immunodeficient NMRI nu/nu mice from Charles River were used. The animals were delivered at the age of 4-6 weeks and are used for implantation after at least 1 week of quarantine. […] During the experiments, animals were monitored at least daily. […]
The tumour volume was determined by a two-dimensional measurement with callipers on the day of randomization (Day 0) and then twice weekly. Tumour volumes were calculated according to the following equation: Tumour Vol [mm^3]=a [mm]×b^2 [mm^2]×0.5 […]
The relative volume of an individual tumour on day X (RTVx) was calculated by dividing the absolute volume [mm^3] of the respective tumour on day X (Tx) by the absolute volume of the same tumour on the day of randomization, i. e. on day 0 (T0), multiplied by 100, as shown by the following equation: […]
Group median and range (alternatively geometric mean+/−SEM) of RTVs were calculated, considering only the tumours of animals that were alive on the day in question (for median). […]

[3] = 72 h exposure, 0.1% Injectin, FIG. 14
[4] = 72 h exposure, increasing Injectin (0.037% to 0.15%), FIG. 15

Substance | proliferation (siRNA-LAT1 alone) ([1]; 25 nM, 72 h exposure, Injectin, FIG. 18A) | Effect of 5-fluoruracil upon proliferation in combination with the siRNA ([1]; 5-FU 10 μM, siRNA 25 nM, 72 h, 0.037% Injectin, FIG. 17A) | Effect of 5-fluoruracil upon proliferation in combination with the siRNA ([1]; 5-FU 3 and 10 μM, siRNA 5 and 25 nM, concentration dependent, 72 h, 0.25% Lipofectamine 2000, FIG. 16) | Decrease in cell proliferation greater the higher the concentration of Injectin in the siRNA:Injectin complexes ([1]; 72 h, FIG. 15) | Effect of cisplatin upon proliferation in combination with the siRNA ([1]; Cisp 3 and 10 μM, siRNA 5 and 25 nM, concentration dependent, 72 h, 0.25% Lipofectamine 2000, FIG. 16) | Effect of oxaliplatin upon proliferation in combination with the siRNA ([1]; Oxa 1 and 3 μM, siRNA 5 and 25 nM, concentration dependent, 72 h, 0.25% Lipofectamine 2000, FIG. 16) | cell proliferation [1, 3] | cell proliferation [1, 4] | proliferation [1] | reduction in relative tumour volume [2] | Enhancement of effects of 5-fluoruracil compared with SEQ ID NO: 267/397/398 ([1]; 5-FU 10 μM, 72 h, FIG. 17B) | Effect of siRNA-LAT1 SEQ ID NO: 58/387/388 upon proliferation in combination with the siRNA-ASCT2 ([1]; 72 h, siRNA-ASCT2 at non-efficacious conditions (0.037% Injectin), FIG. 18)
58/387/388 (sense CUUCGCCACCUACCUGCUCAATT; antisense UUGAGCAGGUAGGUGGCGAAGTT; siRNA; sugars by position and backbone not given here; further chemistry not fully specified) | significant decrease | enhanced | significantly enhanced | particularly evident | significantly enhanced | significantly enhanced | decreased | decreased | significantly decreased | statistically significant | – | –
278/403/404 (sense UGCCACGGUCGCCUCUGAGAATT; antisense UUCUCAGAGGCGACCGUGGCATT; siRNA; sugars by position and backbone not given here; further chemistry not fully specified) | – | – | – | particularly evident | – | – | decreased | decreased | significantly decreased | statistically significant | more marked | enhanced
